According to patent publication US20030124084A1, “Use of dehydroepiandrosterone and/or precursors or derivatives thereof to improve papery aspect of the skin” (priority 2000, published 2003):

What was measured:
Type in all cases: in vivo, human
[1] = system: weathered appearance of the skin; test: Clinical score of the weathered appearance of the skin, back of the hand, treated hand vs control hand
Method: A gelled oil-in-water emulsion containing 1% by weight of DHEA as sole active agent was tested in comparison with a vehicle consisting of an identical emulsion but not containing DHEA.
The products were tested on a group of forty women aged from 55 to 70. Half of the individuals applied the vehicle and the other half applied the DHEA-based emulsion, the choice of the individuals being made according to a computer-generated randomization. The emulsion was applied in the morning and in the evening for four months to the back of only one hand, the other hand serving as a control. The amounts applied were controlled by weighing the tubes at the start and end of the test.
The weathered appearance is assessed clinically under blind conditions on the back of each hand, at the start of the test and after four months, by the same clinician. The weathered appearance is represented by a clinical score ranging from 0 (weathered appearance absent or relatively unpronounced) to 9 (very pronounced weathered appearance).
The statistical analysis is performed by Wilcoxon tests.

skin of the face [2] = test: Elasticity of the skin by Dermal Torque Meter
Method: (§1) This test was performed simultaneously with the one described in example 2, by applying the same products, onto the same groups of individuals, and under the same conditions, except that the products were applied to the skin of the face.
The elasticity of the skin was assessed, at the start of the test and after four months, using the apparatus available under the tradename Dermal Torque Meter® from DTM® Dia-Stron Limited, Andover, Hampshire, United Kingdom. This apparatus makes it possible to study the response of the skin to a deformation applied in the direction parallel to its surface, as described in Escoffier C et al., Age-Related Mechanical Properties of Human Skin: an in Vivo Study, J. Invest. Dermatol., 1989, 93:353-357.
(§2) The statistical analysis was performed by Wilcoxon tests.

skin of the face [3] = test: Clinical scores of texture and flaccidness of the skin of the face
Method: as §1
The texture of the skin and the flaccidness were assessed under blind conditions by the same clinician and are represented by clinical scores ranging from 0 (unpronounced or relatively unpronounced parameter) to 9 (very pronounced parameter).
as §2

[4] = four months vs placebo, Wilcoxon test
[5] = after four months, 1% DHEA emulsion topical on face, score 0 to 9
[6] = start of test, face, score 0 to 9

C[C@]12CC[C@H](O)CC1=CC[C@@H]1[C@@H]2CC[C@]2(C)C(=O)CC[C@@H]12 [DHEA, dehydroepiandrosterone]
score for the weathered appearance on the treated hand vs control hand ([1]; after four months, 1% DHEA emulsion topical morning and evening on back of one hand, score 0 to 9, significant at p=0.05): lower | difference in scores of the weathered appearance between the two hands ([1]; initial time (To), clinical score 0 to 9, women aged 55 to 70): virtually nonexistent | Elasticity, T4 (skin of the face [2]; after four months, 1% DHEA emulsion topical on face, Dermal Torque Meter): 0.66 | effect of topical application on elasticity of the skin (skin of the face [2]; [4]): does not significantly modify | Elasticity, T0 (skin of the face [2]; start of test, face, Dermal Torque Meter): 0.77 | Flaccidness clinical score, T4 (skin of the face [3]; [5]): 4.15 | Texture clinical score, T4 (skin of the face [3]; [5]): 3.8 | effect of topical application on flaccidness of the skin (skin of the face [3]; [4]): does not significantly modify | effect of topical application on texture of the skin (skin of the face [3]; [4]): does not significantly modify | Flaccidness clinical score, T0 (skin of the face [3]; [6]): 4.45 | Texture clinical score, T0 (skin of the face [3]; [6]): 4
